Values joined by “and” are separate entries in the source; they are usually repeats but may differ in a detail not shown here. Equal entries are not always repeated.
System: 648629-189-R-J1-PDC complex spheroids viability
Test: Anticancer human tumor 648629-189-R-J1-PDC patient-derived bladder carcinoma cell line growth inhibition [CLK]
Conditions: for viability, T/C: stronger effect = lower value
Description: A high-throughput screen of multi-cell type tumor spheroids was designed to identify active combinations of […] and targeted small molecules. Complex spheroids include a stromal component modeled by human endothelial cells (HUVEC) and fibroblasts modeled by human mesenchymal stem cells (MSCs). The concentration ranges selected for each drug and investigational agent were based upon clinically achievable concentrations if the clinical Cmax of the agent was known.
Compounds. The drugs and investigational agents: cirtuvivint (SM08502; NSC835563), CC-671 (NSC850746), vemurafenib (NSC761431), tapotoclax (NSC804041), sotorasib (NSC818433), adagrasib (NSC831453), MRTX-1133 (NSC836407), BAY2416964 (NSC825713), copanlisib (NSC816437), inavolisib (NSC800729), abemaciclib (NSC768073), osimertinib (NSC779217), entinostat (NSC756642), eltanexor (KPT-8602, NSC794443), venetoclax (NSC766270), ceralasertib (NSC777638), bortezomib (NSC756655), olaparib (NSC753686), talazoparib (NSC767125), alisertib (NSC759677), peposertib (NSC802822), gemcitabine (NSC613327), 5-fluorouracil (NSC19893), SN-38 (NSC673596), oxaliplatin (NSC266046), paclitaxel (NSC125973), and doxorubicin (NSC123127), were obtained from the National Cancer Institute (NCI) Developmental Therapeutics Program Chemical Repository. The FDA-approved anticancer drug set is available from the Developmental Therapeutics Program at https://dtp.cancer.gov/organization/dscb/obtaining/available plates.htm. […] The stock solutions were prepared in dimethyl sulfoxide (DMSO, Sigma-Aldrich, St. Louis, MO, cat. D2650), except for the platinum complexes which were prepared in saline (Quality Biological, Gaithersburg, MD, cat. 114-055-101), at 800-fold the tested concentration and stored at -70 degrees C prior to their use. All drugs and investigational agents were tested over a range starting from a high concentration at or near the clinical Cmax and decreasing in half-log increments. If the clinical Cmax for an agent had not been determined, the highest concentration tested was 10 microM.
Cell Culture. All cells were maintained in an incubator at 37 degrees C and 5% CO2 with 95% humidity. The PDC lines were cultured according to standard operating procedures established by the NCI PDMR. Briefly, all PDCs were thawed and cultured in Matrigel-coated flasks prepared with a working solution of 1X Ham's F-12 nutrient mix, without supplementation (Invitrogen, Waltham, MA, cat. 11765054), 100 U/mL penicillin-streptomycin (Invitrogen, cat. 15140122), and 2.5% Matrigel (Corning Inc., Corning, NY, cat. 354248) for the first three passages. The 947758-054-R-J2-PDC line was cultured in 6B/Colon 1A media, which includes advanced DMEM/F-12 (Thermo Fisher Scientific, cat. 12634028), 10 mM HEPES (Thermo Fisher Scientific, cat. 15630080), 1X GlutaMAX supplement (Thermo Fisher Scientific, cat. 35050061), 0.1 mg/mL primocin (InvivoGen, cat. ant-pm-2), 10% defined fetal bovine serum, heat inactivated (HyClone Laboratories Inc., cat. SH30070.03HI), 1.25 mM N-Acetyl-L-cysteine (Sigma-Aldrich, cat. A9165), 10 mM nicotinamide (Sigma-Aldrich, cat. N0636), 1X B-27 supplement (Thermo Fisher Scientific, cat. 17504044), 1X N-2 supplement (Thermo Fisher Scientific, cat. 17502048), and 10 microM Y-27632 dihydrochloride (Tocris Bioscience, cat. 1254). The 876862-298-R-J1-PDC was cultured in 6E media, which includes all 6B/Colon 1A media components plus 50% L-WRN conditioned media (ATCC, cat. CRL-3276), 50 ng/mL recombinant human EGF recombinant protein (hEGF; Thermo Fisher Scientific, cat. PHG0311), 10 ng/mL recombinant human fibroblast growth factor 10 (hGFG-10; PeproTech, cat. 100-26), 1 ng/mL recombinant human fibroblast growth factor 2 (hFGF-2; PeproTech, cat. 100-18B), and 1 µM prostaglandin E2 (PGE2; Tocris, cat. 2296). The 227483-062-R1-J1-PDC line was cultured in Panc media, containing all 6E components except hFGF-2, with the addition of 500 nM SB-431542 (Selleckchem, cat. S1067) and 10 nM gastrin (Tocris, cat. 3006). […]

[1] = curve of first compound, second compound 0.0316 µM
[2] = curve of first compound, second compound 0.1 µM
[3] = curve of first compound, second compound 0.316 µM
[4] = curve of first compound, second compound 1 µM
[5] = curve of first compound, second compound 3.16 µM
[6] = curve of first compound, second compound 10 µM
[7] = second compound 0.0316 µM, first compound 0.0316 µM
[8] = second compound 0.0316 µM, first compound 0.1 µM
[9] = second compound 0.0316 µM, first compound 0.316 µM
[10] = second compound 0.0316 µM, first compound 1 µM
[11] = second compound 0.0316 µM, first compound 3.16 µM
[12] = second compound 0.0316 µM, first compound 10 µM
[13] = second compound 0.1 µM, first compound 0.0316 µM
[14] = second compound 0.1 µM, first compound 0.1 µM
[15] = second compound 0.1 µM, first compound 0.316 µM
[16] = second compound 0.1 µM, first compound 1 µM
[17] = second compound 0.1 µM, first compound 3.16 µM
[18] = second compound 0.1 µM, first compound 10 µM
[19] = second compound 0.316 µM, first compound 0.0316 µM
[20] = second compound 0.316 µM, first compound 0.1 µM
[21] = second compound 0.316 µM, first compound 0.316 µM
[22] = second compound 0.316 µM, first compound 1 µM
[23] = second compound 0.316 µM, first compound 3.16 µM
[24] = second compound 0.316 µM, first compound 10 µM
[25] = second compound 1 µM, first compound 0.0316 µM
[26] = second compound 1 µM, first compound 0.1 µM
[27] = second compound 1 µM, first compound 0.316 µM
[28] = second compound 1 µM, first compound 1 µM
[29] = second compound 1 µM, first compound 3.16 µM
[30] = second compound 1 µM, first compound 10 µM
[31] = second compound 3.16 µM, first compound 0.0316 µM
[32] = second compound 3.16 µM, first compound 0.1 µM
[33] = second compound 3.16 µM, first compound 0.316 µM
[34] = second compound 3.16 µM, first compound 1 µM
[35] = second compound 3.16 µM, first compound 3.16 µM
[36] = second compound 3.16 µM, first compound 10 µM
[37] = second compound 10 µM, first compound 0.0316 µM
[38] = second compound 10 µM, first compound 0.1 µM
[39] = second compound 10 µM, first compound 0.316 µM
[40] = second compound 10 µM, first compound 1 µM
[41] = second compound 10 µM, first compound 3.16 µM
[42] = second compound 10 µM, first compound 10 µM
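For viability, T/C in this document: drug exposure lasted seven days before viability readout; 100% = DMSO vehicle control wells.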

CC1COCCN1c1cc(C2(S(C)(=N)=O)CC2)nc(-c2ccnc3[nH]ccc23)n1 (stereo not drawn) + CNC(=O)c1ccc(Nc2nc(OC3CCCC3)c3c(-c4ccc5nc(C)oc5c4)c[nH]c3n2)c(OC)c1
IC50 [1]: 2410 nM
IC50 [2]: 3430 nM
IC50 [3]: < 31.6 nM
IC50 [4]: < 31.6 nM
IC50 [5]: < 31.6 nM
IC50 [6]: < 31.6 nM
viability, T/C [7]: 112%
viability, T/C [8]: 115%
viability, T/C [9]: 98.5%
viability, T/C [10]: 83.4%
viability, T/C [11]: 38.6%
viability, T/C [12]: 19.3%
viability, T/C [13]: 90.2%
viability, T/C [14]: 96.3%
viability, T/C [15]: 92.1%
viability, T/C [16]: 74.2%
viability, T/C [17]: 53.5%
viability, T/C [18]: 21.3%
viability, T/C [19]: 28.9%
viability, T/C [20]: 34.6%
viability, T/C [21]: 34.6%
viability, T/C [22]: 32.4%
viability, T/C [23]: 22.4%
viability, T/C [24]: 15.3%
viability, T/C [25]: 20.5%
viability, T/C [26]: 25.6%
viability, T/C [27]: 19.7%
viability, T/C [28]: 19.2%
viability, T/C [29]: 18.9%
viability, T/C [30]: 16%
viability, T/C [31]: 16.4%
viability, T/C [32]: 21.8%
viability, T/C [33]: 22.3%
viability, T/C [34]: 23.1%
viability, T/C [35]: 21.7%
viability, T/C [36]: 13.9%
viability, T/C [37]: 18.6%
viability, T/C [38]: 19.7%
viability, T/C [39]: 20.8%
viability, T/C [40]: 20.1%
viability, T/C [41]: 21.9%
viability, T/C [42]: 12.4%

CCCS(=O)(=O)Nc1ccc(F)c(C(=O)c2c[nH]c3ncc(-c4ccc(Cl)cc4)cc23)c1F
viability, T/C (compound 0.0316 µM): 99.7% and 107%
viability, T/C (compound 0.1 µM): 97% and 82.6%
viability, T/C (compound 0.316 µM): 98.6% and 98.2%
viability, T/C (compound 1 µM): 104% and 93.3%
viability, T/C (compound 3.16 µM): 108% and 90%
viability, T/C (compound 10 µM): 32.9% and 19.8%
IC50 (curve of compound): 7510 nM and 6090 nM

CC1(C)CCC(CN2CCN(c3ccc(C(=O)NS(=O)(=O)c4ccc(NCC5CCOCC5)c([N+](=O)[O-])c4)c(Oc4cnc5[nH]ccc5c4)c3)CC2)=C(c2ccc(Cl)cc2)C1 + CNC(=O)c1ccc(Nc2nc(OC3CCCC3)c3c(-c4ccc5nc(C)oc5c4)c[nH]c3n2)c(OC)c1
IC50 [1]: > 10000 nM
IC50 [2]: > 10000 nM
IC50 [3]: < 31.6 nM
IC50 [4]: < 31.6 nM
IC50 [5]: < 31.6 nM
IC50 [6]: < 31.6 nM
viability, T/C [7]: 100%
viability, T/C [8]: 114%
viability, T/C [9]: 108%
viability, T/C [10]: 106%
viability, T/C [11]: 85.3%
viability, T/C [12]: 103%
viability, T/C [13]: 86.5%
viability, T/C [14]: 94%
viability, T/C [15]: 93.4%
viability, T/C [16]: 79.2%
viability, T/C [17]: 71%
viability, T/C [18]: 100%
viability, T/C [19]: 26.3%
viability, T/C [20]: 30.1%
viability, T/C [21]: 23.4%
viability, T/C [22]: 25.6%
viability, T/C [23]: 29.4%
viability, T/C [24]: 19.9%
viability, T/C [25]: 20.7%
viability, T/C [26]: 24.1%
viability, T/C [27]: 20.2%
viability, T/C [28]: 23.4%
viability, T/C [29]: 26.5%
viability, T/C [30]: 21.3%
viability, T/C [31]: 23.1%
viability, T/C [32]: 23.3%
viability, T/C [33]: 23.9%
viability, T/C [34]: 20.2%
viability, T/C [35]: 21.6%
viability, T/C [36]: 17.3%
viability, T/C [37]: 20.9%
viability, T/C [38]: 20.7%
viability, T/C [39]: 19.9%
viability, T/C [40]: 22%
viability, T/C [41]: 23.6%
viability, T/C [42]: 20.4%

C=CC(=O)Nc1cc(Nc2nccc(-c3cn(C)c4ccccc34)n2)c(OC)cc1N(C)CCN(C)C
viability, T/C (compound 0.000949 µM): 99.8% and 108%
viability, T/C (compound 0.003 µM): 92.8% and 88.8%
viability, T/C (compound 0.00949 µM): 103% and 107%
viability, T/C (compound 0.03 µM): 110% and 92.8%
viability, T/C (compound 0.0949 µM): 104% and 111%
viability, T/C (compound 0.3 µM): 83.7% and 87.5%
IC50 (curve of compound): > 300 nM
